Results from US11716994B2, “Combinations of Yersinia entomophaga and pesticides or other substances” (priority 2017, dated 2023).
Several values for one entry are separate records, joined by “and”; a condition that tells them apart may be missing. Equal values may be shown once. Read-outs that look alike come from different tables or passages of the source.

Legend:
fall armyworm = assay: Leaf disk mortality assay, Y. entomophaga cells with chemical insecticides; settings: for LT50 (95% confidence intervals) in days / LT50 (95% confidence intervals): 3rd instar; for mortality at 19 µg/mL / mortality at 300 µg/mL: Spodoptera frugiperda, foliar; for % Mort. Chem. / LT50 Chem.: fall armyworm
diamondback moth = assay: whole plant or invertebrate; settings: for LT50 Chem. / % Mort. Chem.: Diamondback moth; for LT50 (95% confidence intervals) in days: Probit analysis
Excerpt: (§1) These were set to dry for 1 hr.
as §1
These were set to dry for 1 hr. Cabbage disks were then dipped in either 1% Luria broth (LB) media solution (controls and thiacloprid alone treatments) or in 1% cell free filtrate from a culture Y. entomophaga isolate O24G3R (Y. entomophaga alone or in combination with thiacloprid treatments).

black cutworm = assay: Leaf disk mortality assay, Y. entomophaga cells with chemical insecticides; settings: black cutworm

For `CCOP(=S)(OCC)Oc1nc(Cl)c(Cl)cc1Cl` [Chlorpyrifos], which “LT50 (95% confidence intervals) in days” value (fall armyworm; chlorpyrifos 19 mg/L, isolate O24G3R 1×10^5 cfu/mL) is on record?
The value was 8.02 (7.22-8.91) days.

What about the “LT50 (95% confidence intervals) in days” value (fall armyworm; chlorpyrifos 19 mg/L, isolate O24KEK 1×10^5 cfu/mL) of the same molecule?
The value was 8.02 (7.22-8.91) days.

And the “LT50 (95% confidence intervals) in days” value (fall armyworm; chlorpyrifos 19 mg/L, isolate O43NEW 1×10^5 cfu/mL)?
Its value is 6.83 (6.09-7.66) days.

What about the “LT50 (95% confidence intervals)” value (fall armyworm; chlorpyrifos 19 mg/L, isolate O333A4 1×10^5 cfu/mL) of the same molecule?
Its value is 8.02 days.

What about the mortality at 19 µg/mL (fall armyworm; 72 h, read-out: % Mortality (3DAT), 3rd instar, chlorpyrifos 19 mg/L, isolate O43NEW 1×10^5 cfu/mL) of the same molecule?
Its mortality at 19 µg/mL is 40%.

And the mortality at 19 µg/mL (fall armyworm; 96 h, read-out: % Mortality (4DAT), 3rd instar, chlorpyrifos 19 mg/L, isolate O43NEW 1×10^5 cfu/mL)?
Its mortality at 19 µg/mL is 45%.

What about the mortality at 19 µg/mL (fall armyworm; 96 h, read-out: % Mortality (4DAT), 3rd instar, chlorpyrifos 19 mg/L, isolate O333A4 1×10^5 cfu/mL) of the same molecule?
The mortality at 19 µg/mL was 35%.

What about the mortality at 19 µg/mL (fall armyworm; 120 h, read-out: % Mortality (5DAT), 3rd instar, chlorpyrifos 19 mg/L, isolate O24G3R 1×10^5 cfu/mL) of the same molecule?
Its mortality at 19 µg/mL is 35%.

What about the mortality at 19 µg/mL (fall armyworm; 120 h, read-out: % Mortality (5DAT), 3rd instar, chlorpyrifos 19 mg/L, isolate O333A4 1×10^5 cfu/mL) of the same molecule?
The mortality at 19 µg/mL was 35%.

What about the mortality at 19 µg/mL (fall armyworm; 144 h, read-out: % Mortality (6DAT), 3rd instar, chlorpyrifos 19 mg/L, isolate O24G3R 1×10^5 cfu/mL) of the same molecule?
The mortality at 19 µg/mL was 35%.

What about the mortality at 19 µg/mL (fall armyworm; 144 h, read-out: % Mortality (6DAT), 3rd instar, chlorpyrifos 19 mg/L, isolate O24KEK 1×10^5 cfu/mL) of the same molecule?
Its mortality at 19 µg/mL is 35%.

And the mortality at 19 µg/mL (fall armyworm; 144 h, read-out: % Mortality (6DAT), 3rd instar, chlorpyrifos 19 mg/L, isolate O333A4 1×10^5 cfu/mL)?
Its mortality at 19 µg/mL is 35%.

What about the mortality at 19 µg/mL (fall armyworm; 168 h, read-out: % Mortality (7DAT), 3rd instar, chlorpyrifos 19 mg/L, isolate O24G3R 1×10^5 cfu/mL) of the same molecule?
The mortality at 19 µg/mL was 40%.

What about the mortality at 19 µg/mL (fall armyworm; 168 h, read-out: % Mortality (7DAT), 3rd instar, chlorpyrifos 19 mg/L, isolate O24KEK 1×10^5 cfu/mL) of the same molecule?
Its mortality at 19 µg/mL is 40%.

And the mortality at 19 µg/mL (fall armyworm; 168 h, read-out: % Mortality (7DAT), 3rd instar, chlorpyrifos 19 mg/L, isolate O333A4 1×10^5 cfu/mL)?
The mortality at 19 µg/mL was 40%.

What about the “% Mort. Chem.” value (fall armyworm; Chlorpyrifos 19 mg/L, 3 DAT) of the same molecule?
The value was 40%.

What about the “% Mort. Chem.” value (fall armyworm; Chlorpyrifos 19 mg/L, 5 DAT) of the same molecule?
The value was 35%.

And the “% Mort. Chem.” value (fall armyworm; Chlorpyrifos 19 mg/L, 6 DAT (row with O24KEK))?
Its value is 35%.

And the “% Mort. Chem.” value (fall armyworm; Chlorpyrifos 19 mg/L, 6 DAT (row with O333A4))?
The value was 35%.

And the “LT50 Chem.” value (fall armyworm; Chlorpyrifos alone 19 mg/L)?
The value was 6.83 days and 8.02 days.

And the “LT50 (95% confidence intervals)” value (diamondback moth; 2nd instar diamondback moth, chlorpyrifos 3.8 mg/L, O43NEW filtrate 1%, alone or combined)?
Its value is 3.72 days.

What about the “LT50 Chem.” value (diamondback moth; chlorpyrifos 3.8 mg/L) of the same molecule?
The value was 3.72 days.

And the “% Mort. Chem.” value (diamondback moth; chlorpyrifos 3.8 mg/L, 4 DAT)?
The value was 74%.

And the mortality at 3.8 µg/mL (diamondback moth; Plutella xylostella, foliar, 96 h, read-out: % Mortality (4DAT), 2nd instar diamondback moth, chlorpyrifos 3.8 mg/L, O43NEW filtrate 1%, alone or combined, 4 DAT, Abbott's corrected)?
Its mortality at 3.8 µg/mL is 74%.

Which “LT50 Chem.” value (black cutworm; Flubendiami-de alone 0.2 mg/L) does the source give for `Cc1cc(C(F)(C(F)(F)F)C(F)(F)F)ccc1NC(=O)c1cccc(I)c1C(=O)NC(C)(C)CS(C)(=O)=O` [Flubendiami-de] here?
The value was 4.83 days.

And the “LT50 Chem.” value (black cutworm; Flubendiami-de alone 0.59 mg/L)?
Its value is 4.99 days.

Which results are given for `CC1(C)[C@H](C(=O)O[C@H](C#N)c2cccc(Oc3ccccc3)c2)[C@@H]1/C=C(\Cl)C(F)(F)F` (racemic) [λ-cyhalothrin]?
LT50 (95% confidence intervals) (fall armyworm; λ-cyhalothrin […], isolate O43NEW 1×10^5 cfu/mL): 5.20 days; LT50 Chem. (fall armyworm; λ-cyhalothrin alone […]): 5.20 days

What does the source list for `CCOC(=O)OC1=C(c2cc(C)ccc2C)C(=O)N[C@]12CC[C@@H](OC)CC2` [Spirotetramat]?
LT50 (95% confidence intervals) in days (fall armyworm; spirotetramat 300 mg/L, isolate O43NEW 1×10^5 cfu/mL): 10.29 (9.39-11.29) days; mortality at 300 µg/mL (fall armyworm; 144 h, read-out: % Mortality (6DAT), 3rd instar, spirotetramat 300 mg/L, isolate O43NEW 1×10^5 cfu/mL): 6%; mortality at 300 µg/mL (fall armyworm; 168 h, read-out: % Mortality (7DAT), 3rd instar, spirotetramat 300 mg/L, isolate O43NEW 1×10^5 cfu/mL): 13%; % Mort. Chem. (fall armyworm; Spirotetramat 300 mg/L, 6 DAT): 6%; LT50 Chem. (fall armyworm; Spirotetramat alone 300 mg/L): 10.29 days; LT50 (95% confidence intervals) in days (diamondback moth; 2nd instar diamondback moth, spirotetramat 30 mg/L, 1% O24G3R filtrate): 23.41 (19.1-28.86) days; LT50 (95% confidence intervals) in days (diamondback moth; 2nd instar diamondback moth, spirotetramat 30 mg/L, 1% O43NEW filtrate): 21.02 (16.86-26.76) days; % Mort. Chem. (diamondback moth; spirotetramat 30 mg/L, 6 DAT, O43NEW experiment): 11%; % Mort. Chem. (diamondback moth; spirotetramat 30 mg/L, 10 DAT, O24G3R experiment): 0%; LT50 Chem. (diamondback moth; spirotetramat 30 mg/L, O24G3R experiment): 23.41 days; LT50 Chem. (diamondback moth; spirotetramat 30 mg/L, O43NEW experiment): 21.02 days; mortality at 30 µg/mL (diamondback moth; Plutella xylostella, foliar, 96 h, read-out: % Mortality (4DAT), diamondback moth, spirotetramat 30 mg/L, 1% O43NEW filtrate, 4 DAT, Abbott's corrected): 5%; mortality at 30 µg/mL (diamondback moth; Plutella xylostella, foliar, 120 h, read-out: % Mortality (5DAT), diamondback moth, spirotetramat 30 mg/L, 1% O43NEW filtrate, 5 DAT, Abbott's corrected): 5%; mortality at 30 µg/mL (diamondback moth; Plutella xylostella, foliar, 144 h, read-out: % Mortality (6DAT), diamondback moth, spirotetramat 30 mg/L, 1% O24G3R filtrate, 6 DAT, Abbott's corrected): 0%; mortality at 30 µg/mL (diamondback moth; Plutella xylostella, foliar, 144 h, read-out: % Mortality (6DAT), diamondback moth, spirotetramat 30 mg/L, 1% O43NEW filtrate, 6 DAT, Abbott's corrected): 11%; mortality at 30 µg/mL (diamondback moth; Plutella xylostella, foliar, 168 h, read-out: % Mortality (7DAT), diamondback moth, spirotetramat 30 mg/L, 1% O43NEW filtrate, 7 DAT, Abbott's corrected): 16%; mortality at 30 µg/mL (diamondback moth; Plutella xylostella, foliar, 240 h, read-out: % Mortality (10DAT), diamondback moth, spirotetramat 30 mg/L, 1% O24G3R filtrate, 10 DAT, Abbott's corrected): 0%; mortality at 30 µg/mL (diamondback moth; Plutella xylostella, foliar, 264 h, read-out: % Mortality (11DAT), diamondback moth, spirotetramat 30 mg/L, 1% O24G3R filtrate, 11 DAT, Abbott's corrected): 0%; mortality at 30 µg/mL (diamondback moth; Plutella xylostella, foliar, 336 h, read-out: % Mortality (14DAT), diamondback moth, spirotetramat 30 mg/L, 1% O24G3R filtrate, 14 DAT, Abbott's corrected): 0%
